Patent publication US20250275959A1, “COMPOUNDS AND METHODS OF THEIR USE” (LEXICON PHARMACEUTICALS, INC., priority 2024, published 2025)

Assay: Murine diet-induced obesity (DIO) model, Compounds B-D study
Type: in vivo, C57BL/6J mice
Settings: DIO mice
Protocol: The effects of four representative compounds of the invention were tested in a mouse model of diet-induced obesity (DIO): • Compound A is (R)—N-(tert-butylsulfonyl)-4-(1-(5-(pyridin-3-yloxy)pyridin-2-yl)ethoxy)-3-(trifluoromethyl)benzamide; • Compound B is (R)-4-(1-(5-(cyclopropylmethoxy)pyridin-2-yl)propoxy)-N-((4-(2-(dimethylamino)ethoxy)phenyl)sulfonyl)-2,3-difluorobenzamide; • Compound C is (R)—N-((4-(2-(dimethylamino)ethoxy)piperidin-1l-yl)sulfonyl)-2,3-difluoro-4-(1-(5-(pyridin-2-yloxy)pyridin-2-yl)propoxy)benzamide; and • Compound D is (R)-2,3-difluoro-N-((4-methylpiperazin-1-yl)sulfonyl)-4-(1-(5-(pyridin-2-yloxy)pyridin-2-yl)propoxy)benzamide.
The mice used in these experiments were C57BL/6J mice fed a high-fat diet (D12492 from Research Diets) ad libitum during the study period. The vehicle and test article formulations were 10% w/v Solutol in water.
In this study, three compounds tested at 30 mg/kg were compared against vehicle control over a month. After their acclimation period, DIO mice were equally divided into groups of ten mice each based on body weight. The animals were pre-dosed for three days prior to formal dosing (once per day treatment every group), as well as weight and food intake were recorded from Day −2 onwards. From Day 1 to Day 27, the animals in the dosing group were administered orally by gavage at 5:00 p.m. every day. All animals were fasted overnight after dosing on Day 28 and Day 29. Then the blood (retro-orbital bleed) of mice from each group was collected at 7:00 a.m. to separate out the serum for measuring total cholesterol levels (TC), triglyceride (TG), aminotransferase alanine (ALT), aspartate aminotransferase (AST) and total bilirubin (TBil) levels on Day 29. On day 30, all animals were performed OGTT test (0 min, 15 min, 30 min, 60 min, 90 min and 120 min) and measured insulin levels (0 min, 15 min, 30 min and 60 min). On day 32, all animals were injected insulin after 4 hours fasting, then performed ITT test (0 min, 15 min, 30 min, 60 min and 90 min). On day 33, Epididymal white adipose tissue (eWAT), jejunum, liver, heart and brain were collected; eWAT, liver and heart weights were recorded. All of the adipose tissue in the abdominal cavity was collected and weighted, and the fatty tissue coefficient (body fat ratio) was calculated and then stored at −80° C. for inspection.
• 1. Body weight and Food Consumption: Pre-dose every day from Day −2 onwards. • 2. Day −2,—1 and Day 0: Handle mice and gavage with vehicle. • 3. Day 1˜27: Dose˜5:00 PM. • 4. Day 28: Dose˜5:00 PM. Fast overnight. • 5. Day 29: Determine total cholesterol levels and triglyceride, ALT, AST, total bilirubin levels˜7:00 AM. Resume feeding. • 6. Day 29: Dose˜5:00 PM. Fast overnight. • 7. Day 30: (No drug administration) Oral glucose tolerance test (OGTT) with glucose levels measured at Pre-dose, 15 min, 30 min, 60 min, 90 min and 120 min after the glucose challenge. And insulin levels will be test at time 0 min, 15 min, 30 min and 60 min after the glucose challenge. • 8. Day 30˜31: Dose˜5:00 PM. • 9. Day 32: (No drug administration) ITT test (two days after the OGTT test): Fast 4 h. After insulin injection, the levels of glucose will be measured at Pre-dose, 15 min, 30 min, 60 min and 90 min. • 10. After the ITT test. Collect serum with a terminal bleed from all 50 mice. • 11. Collect epidydimal WAT (eWAT) pad, jejunum, liver, heart, and brain. • 12. Record eWAT, liver, and heart weights. • 13. Before freezing tissue/serum: • (i) Assess Drug Concentration; serum, liver, eWAT, heart, jujenum, and brain. (25 serum samples; 5 mice/group will progress to biomarker study and remaining 25 serum samples saved for future analysis). • 14. Prepare liver, heart and eWAT tissue for histopathology analysis. • (ii) Liver for all 50 mice; HE staining to assess liver steatosis. • (iii) Heart or all 50 mice; HE and DAPI staining to assess cardiac morphology. […]

## CC[C@@H](Oc1ccc(C(=O)NS(=O)(=O)N2CCN(C)CC2)c(F)c1F)c1ccc(Oc2ccccn2)cn1 [Compound D, (R)-2,3-difluoro-N-((4-methylpiperazin-1-yl)sulfonyl)-4-(1-(5-(pyridin-2-yloxy)pyridin-2-yl)propoxy)benzamide]
30 mg/kg oral daily
  mean body weight versus control group: significantly lower than that of the control group from Day 15 to the end
  overall food consumption versus control group: significantly lower than that of the control group
30 mg/kg oral daily, Day 1
  Body Weight (g)/Day: 44.9 ± 4.3 g
30 mg/kg oral daily, Day 2
  Body Weight (g)/Day: 44.3 ± 4 g
30 mg/kg oral daily, Day 3
  Body Weight (g)/Day: 43.6 ± 3.9 g
30 mg/kg oral daily, Day 4
  Body Weight (g)/Day: 43.7 ± 3.8 g
30 mg/kg oral daily, Day 5
  Body Weight (g)/Day: 43.7 ± 3.6 g
30 mg/kg oral daily, Day 6
  Body Weight (g)/Day: 43.5 ± 3.6 g
30 mg/kg oral daily, Day 7
  Body Weight (g)/Day: 43.4 ± 3.5 g
30 mg/kg oral daily, Day 8
  Body Weight (g)/Day: 43.7 ± 3.6 g
30 mg/kg oral daily, Day 9
  Body Weight (g)/Day: 43.5 ± 3.6 g
30 mg/kg oral daily, Day 10
  Body Weight (g)/Day: 43.3 ± 3.5 g
30 mg/kg oral daily, Day 11
  Body Weight (g)/Day: 42.9 ± 3.4 g
30 mg/kg oral daily, Day 12
  Body Weight (g)/Day: 42.6 ± 3.4 g
30 mg/kg oral daily, Day 13
  Body Weight (g)/Day: 42.3 ± 3.4 g
30 mg/kg oral daily, Day 14
  Body Weight (g)/Day: 42.3 ± 3.3 g
30 mg/kg oral daily, Day 15
  Body Weight (g)/Day: 42.4 ± 3.2 g
30 mg/kg oral daily, Day 16
  Body Weight (g)/Day: 42.3 ± 3.2 g
30 mg/kg oral daily, Day 17
  Body Weight (g)/Day: 42.1 ± 3.4 g
30 mg/kg oral daily, Day 18
  Body Weight (g)/Day: 42.2 ± 3.4 g
30 mg/kg oral daily, Day 19
  Body Weight (g)/Day: 42.3 ± 3.5 g
30 mg/kg oral daily, Day 20
  Body Weight (g)/Day: 42.3 ± 3.6 g
30 mg/kg oral daily, Day 21
  Body Weight (g)/Day: 42.3 ± 3.6 g
30 mg/kg oral daily, Day 22
  Body Weight (g)/Day: 42.3 ± 3.7 g
30 mg/kg oral daily, Day 23
  Body Weight (g)/Day: 42.3 ± 3.7 g
30 mg/kg oral daily, Day 24
  Body Weight (g)/Day: 42.2 ± 3.8 g
30 mg/kg oral daily, Day 25
  Body Weight (g)/Day: 42.4 ± 3.4 g
30 mg/kg oral daily, Day 26
  Body Weight (g)/Day: 42.5 ± 3.5 g
30 mg/kg oral daily, Day 27
  Body Weight (g)/Day: 42.5 ± 3.7 g
30 mg/kg oral daily, Day 28
  Body Weight (g)/Day: 42.5 ± 3.9 g
30 mg/kg oral daily, Day 29
  Body Weight (g)/Day: 41.8 ± 3.8 g
30 mg/kg oral daily, Day 30
  Body Weight (g)/Day: 39.5 ± 3.6 g
30 mg/kg oral daily, Day 31
  Body Weight (g)/Day: 39.7 ± 3.9 g
30 mg/kg oral daily, Day 32
  Body Weight (g)/Day: 38.9 ± 3.8 g
30 mg/kg, Day 0 (pre-dose)
  Body Weight (g)/Day: 44.9 ± 4.3 g
30 mg/kg, Day 33
  eWAT coefficient versus control group: slightly lower than that of the control group
  eWAT weights versus control group: significantly lower than that of the control group
30 mg/kg, Day −1 (pre-dose)
  Body Weight (g)/Day: 44.8 ± 4.1 g
30 mg/kg, Day −2 (pre-dose)
  Body Weight (g)/Day: 44.9 ± 4.1 g
30 mg/kg, abdominal adipose tissue
  mean adipose weights versus control group: significantly lower than that of the control group
Day 32, at 15, 30, 60 and 90 minutes after insulin
  ITT blood glucose versus control group: significantly lower than that of the control group
